{"source": "patent US20050277696A1", "about": "“Novel use of cytotoxic drugs for treatment and prophylasxis of aging diseases by reversing the loss of elasticity of epithelial cells due to aging” (priority 2004, published 2005)", "tested_on": "human epithelial cells", "test": "clonal growth of human epithelial cells in cell culture over 7 days (surviving colonies counted)", "format": "cell-based", "source_text": "Therefore, before the comparison of results based on rigidity of older cells against younger and more elastic cells, the proper concentration of the drug must be found. Dissolved in an appropriate solvent (for example, dimethylsulfoxide for Cytochalasin D, B and Latrunculin A, B, Jasplakinolide), the drug should be added to the cell culture medium. […] The amount of the drug should not be in such a high concentration that would result in the destruction of the cells. As an example, when the treatment of the old cells is done with Cytochalasin B, a cell permeable fungal toxin which binds to the barbed end of actin filaments and results in the inhibition of both the association and dissociation of its subunits, a 4 μg/mL solution of Cytochalasin B in the medium was optimal to treat viable cells for 12 hours. This concentration was determined by performing experiments to measure clonal growth of human epithelial cells in cell culture over 7 days in different concentrations of the drug. The number of surviving colonies of cells was counted to determine the range of concentrations that were non-toxic or non-cytostatic. This range was from 1.0 to 10 μg/mL. The determination of the appropriate concentration of a cytotoxic drug is dependent upon the particular drug of choice, but one skilled in the art would recognize methods to determine the appropriate drug concentration."}
{"smiles": "C=C1[C@@H](C)[C@H]2[C@H](Cc3ccccc3)NC(=O)[C@]23OC(=O)/C=C/[C@H](O)CCC[C@@H](C)C/C=C/[C@H]3[C@@H]1O", "note": "[Cytochalasin B]", "values": [{"measurement": "range of concentrations that were non-toxic or non-cytostatic", "setting": "clonal growth over 7 days in different concentrations of the drug, number of surviving colonies counted", "result": "1.0 to 10", "unit": "µg/mL"}, {"measurement": "optimal concentration in the medium to treat viable cells", "setting": "old cells, treatment for 12 hours, solution in the medium", "result": 4, "unit": "µg/mL"}]}
